Measurements taken from patent US8975261B2, “Aryloxmethyl cyclopropane derivatives as PDE10 inhibitors” (Merck Sharp & Dohme Corp., priority 2011, dated 2015).

Molecular target: human PDE10A2 (Homo sapiens (Human), UniProt Q9Y233)
Test: PDE10 fluorescence polarization (IMAP FP) inhibition assay
Format: biochemical
Details: human PDE10A2 from transfected AD293 cell lysate; FAM-labeled cAMP 50 nM; room temperature; read-out: PDE10A Ki
Experimental: The activity of the compounds in accordance with the present invention as PDE10 inhibitors may be readily determined without undue experimentation using a fluorescence polarization (FP) methodology that is well known in the art (Huang, W., et al., J. Biomol Screen, 2002, 7: 215).
In a typical experiment the PDE10 inhibitory activity of the compounds of the present invention was determined in accordance with the following experimental method. PDE10A2 was amplified from human fetal brain cDNA (Clontech, Mountain View, Calif.) using a forward primer corresponding to nucleotides 56-77 of human PDE10A2 (Accession No. AF127480, Genbank Identifier 4894716), containing a Kozak consensus sequence, and a reverse primer corresponding to nucleotides 2406-2413 of human PDE10A2 (Accession No. AF127480, Genbank Identifier 4894716). Amplification with Easy-A polymerase (Stratagene, La Jolla, Calif.) was 95° C. for 2 minutes followed by thirty three cycles of 95° C. for 40 seconds, 55° C. for 30 seconds, and 72° C. for 2 minutes 48 seconds. Final extension was 72° C. for 7 minutes. The PCR product was TA cloned into pcDNA3.2-TOPO (Invitrogen, Carlsbad, Calif.) according to standard protocol. AD293 cells with 70-80% confluency were transiently transfected with human PDE10A2/pcDNA3.2-TOPO using Lipofectamine 2000 according to manufacturer specifications (Invitrogen, Carlsbad, Calif.). Cells were harvested 48 hours post-transfection and lysed by sonication (setting 3, 10×5 sec pulses) in a buffer containing 20 mM HEPES, 1 mM EDTA and protease inhibitor cocktail (Roche). Lysate was collected by centrifugation at 75,000×g for 20 minutes. Supernatant containing the cytoplasmic fraction was used for evaluation of PDE10A2 activity. The fluorescence polarization assay for cyclic nucleotide phosphodiesterases was performed using an IMAP® FP kit supplied by Molecular Devices, Sunnyvale, Calif. (product #R8139). IMAP® technology has been applied previously to phosphodiesterase assays (Huang, W., et al., J. Biomol Screen, 2002, 7: 215). Assays were performed at room temperature in 384-well microtiter plates with an incubation volume of 20.2 μL. Solutions of test compounds were prepared in DMSO and serially diluted with DMSO to yield 8 μL of each of 10 solutions differing by 3-fold in concentration, at 32 serial dilutions per plate. 100% inhibition is determined using a known PDE10 inhibitor, which can be any compound that is present at 5,000 times its Ki value in the assay described as follows, such as papaverine (see Siuciak, et al. Neuropharmacology (2006) 51:386-396; Becker, et al. Behav Brain Res (2008) 186(2):155-60; Threlfell, et al., J Pharmacol Exp Ther (2009) 328(3):785-795), 2-[4-[pyridin-4-yl-1-(2,2,2-trifluoroethyl)-1H-pyrazol-3-yl]phenoxymethyl]quinoline succinic acid or 2-[4-(1-methyl-4-pyridin-4-yl-1H-pyrazol-3-yl)-phenoxymethyl]quinoline succinic acid (see Schmidt, et al. J Pharmacol Exp Ther (2008) 325:681-690; Threlfell, et al., J Pharmacol Exp Ther (2009) 328(3): 785-795). 0% of inhibition is determined by using DMSO (1% final concentrations). A Labcyte Echo 555 (Labcyte, Sunnyvale, Calif.) is used to dispense 200 nL from each well of the titration plate to the 384 well assay plate. A solution of enzyme (1/7000 dilution from aliquots; sufficient to produce 20% substrate conversion) and a separate solution of FAM-labeled cAMP PDE from Molecular Devices (product #R7506), at a final concentration of 50 nM are made in the assay buffer (10 mM Tris HCl, pH 7.2, 10 mM MgCl2, 0.05% NaN3 0.01% Tween-20, and 1 mM DTT). The enzyme is added to the assay plates by the addition of 10 μL of enzyme solution to each well, shaken to mix and incubated at room temperature for 60 minutes. The substrate is then added to the assay plates by the addition of 10 uL of substrate solution to each well, shaken to mix, and incubated at room temperature for 60 minutes. […]

human PDE10A2, sequence (Q9Y233 267-1055): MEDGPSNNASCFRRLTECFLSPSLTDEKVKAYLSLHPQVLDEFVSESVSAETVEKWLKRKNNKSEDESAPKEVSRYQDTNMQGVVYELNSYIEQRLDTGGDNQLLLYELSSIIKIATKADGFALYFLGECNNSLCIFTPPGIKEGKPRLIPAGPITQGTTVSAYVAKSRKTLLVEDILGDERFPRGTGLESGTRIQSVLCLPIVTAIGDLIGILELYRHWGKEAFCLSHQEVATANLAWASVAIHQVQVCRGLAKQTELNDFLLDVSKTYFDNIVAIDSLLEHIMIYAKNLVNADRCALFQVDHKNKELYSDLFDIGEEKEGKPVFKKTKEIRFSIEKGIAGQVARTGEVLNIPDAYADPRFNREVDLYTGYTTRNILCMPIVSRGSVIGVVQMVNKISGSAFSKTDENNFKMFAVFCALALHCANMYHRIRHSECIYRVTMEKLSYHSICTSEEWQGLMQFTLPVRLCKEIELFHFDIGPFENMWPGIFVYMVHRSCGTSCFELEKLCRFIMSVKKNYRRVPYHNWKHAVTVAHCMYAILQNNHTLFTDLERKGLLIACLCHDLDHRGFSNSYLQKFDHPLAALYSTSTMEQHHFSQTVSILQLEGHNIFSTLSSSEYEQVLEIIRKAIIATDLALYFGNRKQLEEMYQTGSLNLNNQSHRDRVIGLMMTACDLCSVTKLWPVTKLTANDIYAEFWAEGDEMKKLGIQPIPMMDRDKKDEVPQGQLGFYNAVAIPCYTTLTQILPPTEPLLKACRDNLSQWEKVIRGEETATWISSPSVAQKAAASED

Structure (SMILES)	Ki
COc1ccc([C@H]2C[C@@H]2COc2nc(C)ncc2-c2csc(C)n2)nc1 [1-57, 4-{[(1S,2S)-2-(5-methoxypyridin-2-yl)cyclopropyl]methoxy}-2-methyl-5-(2-methyl-1,3-thiazol-4-yl)pyrimidine]	780 pM
COc1ccc([C@H]2C[C@@H]2COc2nc(C)ncc2C2=CCC(O)CC2)nc1 (stereo partly drawn) [1-31, 4-(4-{[(1S,2S)-2-(5-methoxypyridin-2-yl)cyclopropyl]methoxy}-2-methylpyrimidin-5-yl)cyclohex-3-en-1-ol]	150 pM
COc1ccc([C@H]2C[C@@H]2COc2nc(C)ncc2-c2ccc(C)nc2)nc1 [1-73, 4-{[(1S,2S)-2-(5-methoxypyridin-2-yl)cyclopropyl]methoxy}-2-methyl-5-(6-methylpyridin-3-yl)pyrimidine]	800 pM
COc1ccc([C@H]2C[C@@H]2COc2ncc(C)cc2-c2cnn3c2CCC3)nc1 [1-39, 3-(2-{[(1S,2S)-2-(5-methoxypyridin-2-yl)cyclopropyl]methoxy}-5-methylpyridin-3-yl)-5,6-dihydro-4H-pyrrolo[1,2-b]pyrazole]	340 pM
COc1ccc([C@H]2C[C@@H]2COc2nc(C)ncc2-c2cnn(C)c2)nc1 [MM4, 4-{[(1S,2S)-2-(5-methoxypyridin-2-yl)cyclopropyl]methoxy}-2-methyl-5-(1-methyl-1H-pyrazol-4-yl)pyrimidine]	250 pM
COc1ccc([C@H]2C[C@@H]2COc2nc(C)ncc2-c2nnc(C3CC3)s2)nc1 [1-55, 5-(5-cyclopropyl-1,3,4-thiadiazol-2-yl)-4-{[(1S,2S)-2-(5-methoxypyridin-2-yl)cyclopropyl]methoxy}-2-methylpyrimidine]	4200 pM
Cc1ncc(-c2cnn(C)c2)c(OC[C@H]2C[C@@H]2c2ccn(C)n2)n1 [1-54, 2-methyl-5-(1-methyl-1H-pyrazol-4-yl)-4-{[(1S,2S)-2-(1-methyl-1H-pyrazol-3-yl)cyclopropyl]methoxy}-pyrimidine]	3200 pM
Cc1ncc(-c2c(C)nn(C)c2C)c(OC[C@H]2C[C@@H]2c2ccc3ccccc3n2)n1 [1-46, 2-[(1S,2S)-2-({[2-methyl-5-(1,3,5-trimethyl-1H-pyrazol-4-yl)pyrimidin-4-yl]oxy}methyl)cyclopropyl]quinoline]	2 pM
COc1ccc([C@H]2C[C@@H]2COc2nc(C)ncc2/C=C/c2cccnc2)nc1 [TT1, 4-{[(1S,2S)-2-(5-methoxypyridin-2-yl)cyclopropyl]methoxy}-2-methyl-5-[(E)-2-(pyridin-3-yl)ethenyl]pyrimidine]	600 pM
Cn1cc(-c2cc3ccncc3nc2OC[C@H]2C[C@@H]2c2ccc3ncccc3n2)cn1 [1-42, 2-[(1S,2S)-2-({[3-(1-methyl-1H-pyrazol-4-yl)-1,7-naphthyridin-2-yl]oxy}methyl)cyclo-propyl]-1,5-naphthyridine]	40 pM
COc1ccc([C@H]2C[C@@H]2COc2nc3cccnc3cc2-c2cnn(CCO)c2)nc1 [LL3, 2-[4-(2-{[(1S,2S)-2-(5-methoxypyridin-2-yl)cyclopropyl]methoxy}-1,5-naphthyridin-3-yl)-1H-pyrazol-1-yl]ethanol]	230 pM
COc1ccc([C@H]2C[C@@H]2COc2nc3cccnc3cc2C2CCCN(C(C)=O)C2)nc1 (stereo partly drawn) [RR4, 1-[3-(2-{[(1S,2S)-2-(5-methoxypyridin-2-yl)cyclopropyl]methoxy}-1,5-naphthyridin-3-yl)piperidin-1-yl]ethanone]	2500 pM
COc1ccc([C@H]2C[C@@H]2COc2nc(C)c(C)nc2-c2cncc(OC)c2)nc1 [1-36, 2-(5-methoxypyridin-3-yl)-3-{[(1S,2S)-2-(5-methoxypyridin-2-yl)cyclopropyl]methoxy}-5,6-dimethylpyrazine]	220 pM
COc1ccc([C@H]2C[C@@H]2COc2nc(C)ncc2CN2CCC(F)(F)C2)nc1 [SS1, 5-[(3,3-difluoropyrrolidin-1-yl)methyl]-4-{[(1S,2S)-2-(5-methoxypyridin-2-yl)cyclopropyl]methoxy}-2-methylpyrimidine]	60800 pM
